Each structure is given as a SMILES string.

For experiment [1], the target named is T1, T5 exonuclease (T5E) (Escherichia phage T5, UniProt P06229).
T1 sequence (P06229 2-291): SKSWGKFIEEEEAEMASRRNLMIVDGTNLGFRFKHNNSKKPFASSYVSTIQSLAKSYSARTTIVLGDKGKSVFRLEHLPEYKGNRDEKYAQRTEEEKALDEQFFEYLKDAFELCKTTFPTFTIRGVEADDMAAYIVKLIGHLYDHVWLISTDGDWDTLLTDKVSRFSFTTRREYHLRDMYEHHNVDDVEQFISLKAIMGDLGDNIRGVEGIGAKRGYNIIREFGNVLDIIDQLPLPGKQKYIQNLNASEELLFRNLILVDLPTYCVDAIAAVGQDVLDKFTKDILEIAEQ
Put plainly: agarose gel, degradation of. In kind it is biochemical. To be noted: high nucleotide concentrations.

Experiment [2] addresses T2, E. coli DNA topoisomerase I (EcTopI) (Escherichia coli, UniProt P06612).
T2 sequence (P06612 1-865): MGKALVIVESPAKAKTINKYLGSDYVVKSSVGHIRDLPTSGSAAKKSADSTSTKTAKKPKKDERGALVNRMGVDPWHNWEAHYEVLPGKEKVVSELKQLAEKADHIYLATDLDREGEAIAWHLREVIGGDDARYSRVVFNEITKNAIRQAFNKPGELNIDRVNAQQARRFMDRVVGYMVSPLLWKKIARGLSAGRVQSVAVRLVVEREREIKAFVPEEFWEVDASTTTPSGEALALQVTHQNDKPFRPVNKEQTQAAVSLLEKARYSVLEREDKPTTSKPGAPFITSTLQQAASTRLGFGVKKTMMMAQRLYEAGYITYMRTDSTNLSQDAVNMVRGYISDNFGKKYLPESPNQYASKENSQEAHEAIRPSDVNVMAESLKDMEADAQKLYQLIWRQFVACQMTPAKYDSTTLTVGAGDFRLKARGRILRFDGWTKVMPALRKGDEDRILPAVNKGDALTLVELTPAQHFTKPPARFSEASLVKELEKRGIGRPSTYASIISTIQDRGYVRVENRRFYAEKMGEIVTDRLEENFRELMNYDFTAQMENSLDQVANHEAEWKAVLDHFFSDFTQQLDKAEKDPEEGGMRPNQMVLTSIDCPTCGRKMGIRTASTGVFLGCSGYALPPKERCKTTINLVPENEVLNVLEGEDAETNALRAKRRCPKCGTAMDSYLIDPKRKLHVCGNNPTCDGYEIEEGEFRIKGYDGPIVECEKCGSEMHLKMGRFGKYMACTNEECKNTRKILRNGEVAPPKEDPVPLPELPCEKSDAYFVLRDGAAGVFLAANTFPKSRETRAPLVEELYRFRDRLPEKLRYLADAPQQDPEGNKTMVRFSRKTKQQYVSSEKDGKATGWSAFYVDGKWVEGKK
The experiment in a line: agarose gel DNA relaxation assay. The format is biochemical.

In experiment [3] the target is variola DNA topoisomerase I (vTopI) (Variola virus human/India/Ind3/1967, UniProt P32989).
variola DNA topoisomerase I (vTopI), sequence (P32989 whole entry, looked up): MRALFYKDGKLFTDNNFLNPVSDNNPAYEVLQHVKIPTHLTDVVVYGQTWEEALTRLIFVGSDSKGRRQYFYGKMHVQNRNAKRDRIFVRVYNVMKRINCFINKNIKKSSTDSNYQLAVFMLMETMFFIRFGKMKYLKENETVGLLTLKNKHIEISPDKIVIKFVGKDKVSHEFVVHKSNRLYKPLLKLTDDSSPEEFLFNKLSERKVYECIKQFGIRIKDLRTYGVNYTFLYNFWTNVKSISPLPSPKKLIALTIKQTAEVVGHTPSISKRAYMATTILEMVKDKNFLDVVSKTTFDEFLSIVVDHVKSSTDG
Experiment [4] addresses T1, T5 exonuclease (T5E). The experiment in a line: flap endonuclease activity assay. In kind it is biochemical.

As to `Nc1ncnc2c1ncn2[C@@H]1O[C@H](COP(=O)(O)OP(=O)(O)OP(=O)(O)O)[C@@H](O)[C@H]1O` [ATP], on T5 exonuclease (T5E) [1], the “agarose gel, degradation of (-) sc pAB1” value is “high concentrations of ATP, GTP, CTP, and UTP inhibited the degradation of (−) sc pAB1”.

With `Nc1ccn([C@@H]2O[C@H](COP(=O)(O)OP(=O)(O)OP(=O)(O)O)[C@@H](O)[C@H]2O)c(=O)n1` [CTP], the “agarose gel, degradation of (-) sc pAB1” value on T5 exonuclease (T5E) [1] is “high concentrations of ATP, GTP, CTP, and UTP inhibited the degradation of (−) sc pAB1”.

Regarding `Nc1nc2c(ncn2[C@@H]2O[C@H](COP(=O)(O)OP(=O)(O)OP(=O)(O)O)[C@@H](O)[C@H]2O)c(=O)[nH]1` [GTP], the “agarose gel, degradation of (-) sc pAB1” value at T5 exonuclease (T5E) [1] was “high concentrations of ATP, GTP, CTP, and UTP inhibited the degradation of (−) sc pAB1”.

`O=C1C=C(NCCc2cc(Br)c(O)c(Br)c2)C(=O)c2ncccc21` [NSC668394]: in experiment [2], half-maximal inhibition (IC50) required 8 ± 0.2 µM.

Turning to `O=c1ccn([C@@H]2O[C@H](COP(=O)(O)OP(=O)(O)OP(=O)(O)O)[C@@H](O)[C@H]2O)c(=O)[nH]1` [UTP], the “agarose gel, degradation of (-) sc pAB1” value at T5 exonuclease (T5E) [1] was “high concentrations of ATP, GTP, CTP, and UTP inhibited the degradation of (−) sc pAB1”.

With `Cc1ccc(C(=O)Nc2ccc(S(=O)(=O)O)c3cc(S(=O)(=O)O)cc(S(=O)(=O)O)c23)cc1NC(=O)c1cccc(NC(=O)Nc2cccc(C(=O)Nc3cc(C(=O)Nc4ccc(S(=O)(=O)O)c5cc(S(=O)(=O)O)cc(S(=O)(=O)O)c45)ccc3C)c2)c1` [suramin], in experiment [3], the “T5 exonuclease-based fluorescence HTS at 20 μM” value is given as “The only positive hit is the polynegatively charged suramin (Figure S6b)”. Also, the 50% inhibitory concentration (IC50) at T5 exonuclease (T5E) [4] is 22.6 µM.

As a reminder, the IC50 is the point on the concentration scale where inhibition reaches its midpoint.

These data come from paper PMC8154156 (ACS Omega, 2021).
